Measurements taken from US20140377390A1, “Cosmetic Compositions Comprising Plant Extracts for Combating Skin Aging” (CASTER, priority 2013, published 2014).
[ ]: non-standard residue; d: D form. Cit = NC(=O)NCCC[C@H](N)C(=O)O

Legend:
[1] = system: primary human fibroblast cells (HDFa); test: Evaluation of cytotoxicity, MTT colorimetric test (cell vitality); assay type: cell-based; conditions: relative to untreated cells = 100%
From the text: This test serves to define the maximum tolerable dose that can be used on the cells without a toxic effect, by means of a rapid and sensitive quantification of the cell proliferation and of the cell viability as a function of the compositions according to the invention.
Briefly, the colorimetric test is based on the activity of a mitochondrial enzyme, succinate dehydrogenase, which degrades the yellow substrate MTT (3-[4,5-dimethylthiazol-2-yl]-2,5-diphenyltetrazolium bromide) into formazan crystals (violet). The amount of formazan salt produced by the cells from the MTT indicates the cell vitality and is measured by spectrophotometry at 570 nm.
In passage 3, the cells were seeded into 96-well plates in a proportion of 2000 cells in a volume of 200 μl of culture medium (Tebu-Bio—Fibroblast Growth Medium—500 ml—Ref 95116500).
On day 7 after seeding of the cells (the medium having been replaced with fresh medium every two days), the culture medium (Tebu-Bio—Fibroblast Growth Medium—500 ml—Ref. 95116500) is removed and 200 μl of the active agent to be tested, diluted in culture medium (no less than 50% of medium), are added and then the cells are reincubated (37° C., 5% CO2).
On the day of the test, 2 ml of fresh MTT solution are prepared by diluting the MTT powder (Thiazolyl Blue Tetrazolium Bromide, Sigma ref. M 5655) to 5 mg/ml in PBS.
20 μl of MTT solution are added to each well. After homogenization, the plate is reincubated (37° C., 5% CO2) for 3 to 4 hours so as to allow metabolization of the MTT.
During this time, the MTT solubilization solution is prepared (DMSO/Isopropanol—1:1). The culture medium is removed by suctioning, and then the plate is dried with absorbent paper. The formazan crystals which have formed are then resuspended with 150 μl of MTT solubilization solution, by agitation at 150 rpm for 15 minutes at ambient temperature.
The optical density is then read at 570 nm on a Perkin Elmer Enspire® Multimode Reader spectrophotometer, with the OD at 670 nm (background noise) being removed.
The result is expressed as a function of the % absorption relative to the % absorption noted for the control cells (not treated with a compound).

[2] = system: MDR (Multidrug Resistance Proteins) in HDFa cells; test: MDR activity test (calcein retention, Vybrant MDR Resistance Assay Kit); conditions: 24 hours, control = 100%
From the text: In normal cells, non-fluorescent calcein enters the cell and accumulates therein. It is hydrolysed therein by endogenous esterases, and becomes fluorescent. In cells in which MDR expression is increased, the presence of these protein transporters makes it possible to expel the calcein out of the cell before it is cleaved: there is no fluorescence.
To do this, the Molecular Probes Vybrant MDR Resistance Assay Kit (V13180 Invitrogen Life Science) is used.
These cells are then in passage 4. The cells are left to stand for 48 h for adhesion in an incubator at 37° C. and 5% CO2. […] This stock solution at 10 mg/ml is then diluted in PBS until the working concentration is obtained; • 5 wells with FGF (Sigma) at 5 nM final concentration in the well (positive control) or KGF (Sigma) at 25 ng/ml.
The cells comprising active agents are incubated at 37° C., 5% CO2 for 24 hours.
On D3, a labelling solution is prepared by diluting the calcein solution of the kit at 1 mM (component A of the Invitrogen Life Science kit V13180) in PBS, so as to achieve a concentration of 1 μM (1000× dilution); 50 μl of calcein diluted to 1 μM are provided per well, i.e. 5 ml per 96-well plate. […]
The calcein retention is measured on a Perkin Elmer Enspire® Multimode Reader fluorescence spectrophotometer, by reading the fluorescein fluorescence (λexcitation: 494 nm, λemission: 512 nm). […]

Q: Which results are given for H-KDV[Cit]-NH2 [Peptide]?
A: % vitality ([1]; peptide concentration 0.000001%): 94.6%; % vitality ([1]; peptide concentration 0.00001%): 71.0%; % vitality ([1]; peptide concentration 0.00002%): 66.9%; % vitality ([1]; peptide concentration 0.00004%): 72.0%; % vitality ([1]; peptide concentration 0.00006%): 44.7%; % vitality ([1]; peptide concentration 0.00008%): 57.3%; % vitality ([1]; peptide concentration 0.0001%): 39.8%; % vitality ([1]; peptide concentration 0.0002%): 47.6%; % vitality ([1]; peptide concentration 0.005%): 49.7%

Q: With `COc1ccc(CCN(C)CCCC(C#N)(c2ccc(OC)c(OC)c2)C(C)C)cc1OC` (centres unmarked) [Verapamil, verapamil, reference compound] as the molecule, how does the “% calcein retention” value ([2]; 30 μg/ml, greater than 100 = inhibits MDR activity) read?
A: Its value is 139.1%.

B1: KGF: KGF (Sigma), growth factor, positive control (protein, UniProt P21781 32-194, looked up)
Fibroblast growth factor 7: CNDMTPEQMATNVNCSSPERHTRSYDYMEGGDIRVRRLFCRTQWYLRIDKRGKVKGTQEMKNNYNIMEIRTVAVGIVAIKGVESEFYLAMNKEGKLYAKKECNEDCNFKELILENHYNTYASAKWTHNGGEMFVALNQKGIPVRGKKTKKEQKTAHFLPMAIT
Q: For B1, which “% calcein retention” value ([2]; 25 ng/ml, less than 100 = stimulates MDR activity) is on record?
A: The value was 92.3%.
